Measured values taken from US20240218022A1, “ANTI-VISTA MACROCYCLIC PEPTIDES AND COMPOSITIONS” (BRISTOL-MYERS SQUIBB COMPANY, priority 2022, published 2024).
Read-outs that look alike come from different tables or passages of the source. Positions of bridges follow the written chain, without caps; N, C: chain ends. Non-standard residues stand in square brackets, D forms with d. Residues, ends and D or L forms follow the SMILES beside them. ξ: configuration not given here. NMeW = CN[C@@H](Cc1c[nH]c2ccccc12)C(=O)O; Phe(3-Me) = Cc1cccc(C[C@H](N)C(=O)O)c1; 2Nal = N[C@@H](Cc1ccc2ccccc2c1)C(=O)O; NMeR = CN[C@@H](CCCNC(=N)N)C(=O)O; Cit = NC(=O)NCCC[C@H](N)C(=O)O; Ahp(2) = CCCCC[C@H](N)C(=O)O; NMeNle = CCCC[C@H](NC)C(=O)O; NMeV = CN[C@H](C(=O)O)C(C)C; NMeS = CN[C@@H](CO)C(=O)O; NHexGly = CCCCCCNCC(=O)O; Nle = CCCC[C@H](N)C(=O)O; Orn = NCCC[C@H](N)C(=O)O; ξD = NC(CC(=O)O)C(=O)O

Target: T1, mouse VISTA (mVISTA) (Mus musculus, UniProt Q9D659)
T1 construct: expressed in transfected cells; host or cells: Human embryonic kidney 293T cells
T1 sequence (Q9D659 33-308): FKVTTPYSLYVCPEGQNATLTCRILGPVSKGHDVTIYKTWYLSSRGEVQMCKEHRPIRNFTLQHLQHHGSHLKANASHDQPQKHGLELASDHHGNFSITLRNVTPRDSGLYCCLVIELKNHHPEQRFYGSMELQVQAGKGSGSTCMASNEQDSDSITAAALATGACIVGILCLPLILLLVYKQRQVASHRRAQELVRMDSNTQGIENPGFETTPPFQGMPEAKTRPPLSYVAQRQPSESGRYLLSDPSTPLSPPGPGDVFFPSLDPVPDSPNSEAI
Test: Cell-Based Binding High-Content Assay For mVISTA (HC CBA mVISTA)
Conditions: read-out: HC CBA mVISTA IC50
How it was run: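 Read-out: Alexa 647–streptavidin signal imaged on fixed, Hoechst-stained mVISTA-293T cells, with IC50 taken from a four-parameter logistic curve. Compounds competed with 2 nM biotinylated peptide for 30 min at room temperature, tested under both no-wash and wash (1 h compound, media exchange, 1 h) formats.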

[1] = cell-based binding high-content assay, mVISTA, the 15th table

CCCCCCN1CC(=O)N[C@@H](Cc2ccc(O)cc2)C(=O)N[C@@H](CCCC)C(=O)N[C@@H](CC(N)=O)C(=O)N[C@@H](CCCNC(N)=O)C(=O)N(C)[C@@H](CCCC)C(=O)N[C@@H](CCCCC)C(=O)N2CCC[C@H]2C(=O)N[C@@H](C(C)C)C(=O)N[C@@H](CC(=O)O)C(=O)N[C@H](C(=O)NCC(=O)O)CSCC(=O)N[C@@H](Cc2ccc3ccccc3c2)C(=O)N[C@@H](Cc2c[nH]c3ccccc23)C(=O)N[C@@H](CC(=O)O)C1=O [compound 1253] ({CH2CO}-[2Nal]WD[NHexGly]Y[Nle]N[Cit][NMeNle][Ahp(2)]PVDCG-OH; thioether N-14)
IC50 [1]: 6.9 nM

CCCCCCN1CC(=O)N[C@@H](Cc2ccc(O)cc2)C(=O)N[C@@H](CCCCC)C(=O)N[C@@H](CC(N)=O)C(=O)N[C@@H](CCCNC(=N)N)C(=O)N(C)[C@@H](CCCC)C(=O)N[C@@H](CCCCC)C(=O)N2CCC[C@H]2C(=O)N[C@@H](C(C)C)C(=O)N[C@@H](CC(=O)O)C(=O)N[C@H](C(=O)N[C@@H](CO)C(N)=O)CSCC(=O)N[C@@H](Cc2ccc3ccccc3c2)C(=O)N[C@@H](Cc2c[nH]c3ccccc23)C(=O)N[C@@H](CC(=O)O)C1=O [compound 1254] ({CH2CO}-[2Nal]WD[NHexGly]Y[Ahp(2)]NR[NMeNle][Ahp(2)]PVDCS-NH2; thioether N-14)
IC50 [1]: 15.7 nM

CCCCCCN1CC(=O)N[C@@H](Cc2ccc(O)cc2)C(=O)N[C@@H](CCCC)C(=O)N[C@@H](CC(N)=O)C(=O)N[C@@H](CCCNC(=N)N)C(=O)N(C)[C@@H](CCCC)C(=O)N[C@@H](CCCCC)C(=O)N2CCC[C@H]2C(=O)N[C@@H](C(C)C)C(=O)N[C@@H](CC(=O)O)C(=O)N[C@H](C(=O)N[C@@H](CO)C(=O)O)CSCC(=O)N[C@@H](Cc2ccc3ccccc3c2)C(=O)N[C@@H](Cc2c[nH]c3ccccc23)C(=O)N[C@@H](CC(=O)O)C1=O [compound 1255] ({CH2CO}-[2Nal]WD[NHexGly]Y[Nle]NR[NMeNle][Ahp(2)]PVDCS-OH; thioether N-14)
IC50 [1]: 13.1 nM

CCCCCCN1CC(=O)N[C@@H](Cc2ccc(O)cc2)C(=O)N[C@@H](CCCC)C(=O)N[C@@H](CC(=O)O)C(=O)N[C@@H](CCCN)C(=O)N(C)[C@@H](CCCC)C(=O)N[C@@H](CCCCC)C(=O)N2CCC[C@H]2C(=O)N[C@@H](C(C)C)C(=O)N[C@@H](CC(=O)O)C(=O)N[C@H](C(=O)N[C@@H](CO)C(N)=O)CSCC(=O)N[C@@H](Cc2ccc3ccccc3c2)C(=O)N[C@@H](Cc2c[nH]c3ccccc23)C(=O)N[C@@H](CC(=O)O)C1=O [compound 1256] ({CH2CO}-[2Nal]WD[NHexGly]Y[Nle]D[Orn][NMeNle][Ahp(2)]PVDCS-NH2; thioether N-14)
IC50 [1]: 12.9 nM

CCCCCCN1CC(=O)N[C@@H](Cc2ccc(O)cc2)C(=O)N[C@@H](CCCC)C(=O)N[C@@H](CC(=O)O)C(=O)N[C@@H](CCCNC(=N)N)C(=O)N(C)[C@@H](CCCC)C(=O)N[C@@H](CCCCC)C(=O)N2CCC[C@H]2C(=O)N[C@@H](C(C)C)C(=O)N[C@@H](CC(=O)O)C(=O)N[C@H](C(=O)N[C@@H](CO)C(N)=O)CSCC(=O)N[C@@H](Cc2ccc3ccccc3c2)C(=O)N[C@@H](Cc2c[nH]c3ccccc23)C(=O)N[C@@H](CC(=O)O)C1=O [compound 1257] ({CH2CO}-[2Nal]WD[NHexGly]Y[Nle]DR[NMeNle][Ahp(2)]PVDCS-NH2; thioether N-14)
IC50 [1]: 11.3 nM

CCCCCCN1CC(=O)N[C@@H](Cc2ccc(O)cc2)C(=O)N[C@@H](CCCC)C(=O)N[C@@H](CC(N)=O)C(=O)N[C@@H](CCCNC(=N)N)C(=O)N(C)[C@@H](CCCNC(=N)N)C(=O)N[C@@H](CCCCC)C(=O)N2CCC[C@H]2C(=O)N[C@@H](C(C)C)C(=O)N[C@@H](CC(=O)O)C(=O)N[C@H](C(=O)NCC(=O)O)CSCC(=O)N[C@@H](Cc2ccc3ccccc3c2)C(=O)N[C@@H](Cc2c[nH]c3ccccc23)C(=O)N[C@@H](CC(=O)O)C1=O [compound 1258] ({CH2CO}-[2Nal]WD[NHexGly]Y[Nle]NR[NMeR][Ahp(2)]PVDCG-OH; thioether N-14)
IC50 [1]: 12 nM

CCCCCCN1CC(=O)N[C@@H](Cc2ccc(O)cc2)C(=O)N[C@@H](CCCC)C(=O)N[C@@H](CC(N)=O)C(=O)N[C@@H](CCCNC(=N)N)C(=O)N(C)[C@@H](CO)C(=O)N[C@@H](CCCCC)C(=O)N2CCC[C@H]2C(=O)N[C@@H](C(C)C)C(=O)N[C@@H](CC(=O)O)C(=O)N[C@H](C(=O)NCC(=O)O)CSCC(=O)N[C@@H](Cc2ccc3ccccc3c2)C(=O)N[C@@H](Cc2c[nH]c3ccccc23)C(=O)N[C@@H](CC(=O)O)C1=O [compound 1259] ({CH2CO}-[2Nal]WD[NHexGly]Y[Nle]NR[NMeS][Ahp(2)]PVDCG-OH; thioether N-14)
IC50 [1]: 8 nM

CCCCCCN1CC(=O)N[C@@H](Cc2ccc(O)cc2)C(=O)N[C@@H](CCCC)C(=O)N[C@@H](CC(N)=O)C(=O)N[C@@H](CCCNC(=N)N)C(=O)N(C)[C@@H](C(C)C)C(=O)N[C@@H](CCCCC)C(=O)N2CCC[C@H]2C(=O)N[C@@H](C(C)C)C(=O)N[C@@H](CC(=O)O)C(=O)N[C@H](C(=O)NCC(=O)O)CSCC(=O)N[C@@H](Cc2ccc3ccccc3c2)C(=O)N[C@@H](Cc2c[nH]c3ccccc23)C(=O)N[C@@H](CC(=O)O)C1=O [compound 1260] ({CH2CO}-[2Nal]WD[NHexGly]Y[Nle]NR[NMeV][Ahp(2)]PVDCG-OH; thioether N-14)
IC50 [1]: 9.4 nM

CCCCCCN1CC(=O)N[C@@H](Cc2ccc(O)cc2)C(=O)N[C@@H](CCCC)C(=O)N[C@@H](CC(N)=O)C(=O)N[C@@H](CCCNC(=N)N)C(=O)N(C)[C@@H](Cc2c[nH]c3ccccc23)C(=O)N[C@@H](CCCCC)C(=O)N2CCC[C@H]2C(=O)N[C@@H](C(C)C)C(=O)N[C@@H](CC(=O)O)C(=O)N[C@H](C(=O)NCC(=O)O)CSCC(=O)N[C@@H](Cc2ccc3ccccc3c2)C(=O)N[C@@H](Cc2c[nH]c3ccccc23)C(=O)N[C@@H](CC(=O)O)C1=O [compound 1261] ({CH2CO}-[2Nal]WD[NHexGly]Y[Nle]NR[NMeW][Ahp(2)]PVDCG-OH; thioether N-14)
IC50 [1]: 11.7 nM

CCCCCCN1CC(=O)N[C@@H](Cc2ccc(O)cc2)C(=O)N[C@@H](CC(C)C)C(=O)NCC(=O)N[C@@H](CCCNC(=N)N)C(=O)N[C@@H](Cc2ccc(O)cc2)C(=O)N[C@@H](CCCCC)C(=O)N2CCC[C@H]2C(=O)N[C@@H](C(C)C)C(=O)N[C@@H](CC(=O)O)C(=O)N[C@H](C(=O)NCC(=O)O)CSCC(=O)N[C@@H](Cc2ccc3ccccc3c2)C(=O)N[C@@H](Cc2c[nH]c3ccccc23)C(=O)N[C@@H](CC(=O)O)C1=O [compound 1263] ({CH2CO}-[2Nal]WD[NHexGly]YLGRY[Ahp(2)]PVDCG-OH; thioether N-14)
IC50 [1]: 20 nM

CCCCCCN1CC(=O)N[C@@H](Cc2ccc(O)cc2)C(=O)N[C@@H](CC(C)C)C(=O)NCC(=O)N[C@@H](CCCNC(=N)N)C(=O)N[C@@H](Cc2ccc(O)cc2)C(=O)N[C@@H](CCCCC)C(=O)N2CCC[C@H]2C(=O)N[C@@H](C(C)C)C(=O)N[C@@H](CC(=O)O)C(=O)N[C@H](C(=O)NCC(N)=O)CSCC(=O)N[C@@H](Cc2ccc3ccccc3c2)C(=O)N[C@@H](Cc2c[nH]c3ccccc23)C(=O)N[C@@H](CC(=O)O)C1=O [compound 1264] ({CH2CO}-[2Nal]WD[NHexGly]YLGRY[Ahp(2)]PVDCG-NH2; thioether N-14)
IC50 [1]: 28.4 nM

CCCCCCN1CC(=O)N[C@@H](Cc2ccc(O)cc2)C(=O)N[C@@H](C(C)C)C(=O)NCC(=O)N[C@@H](CCCNC(=N)N)C(=O)N[C@@H](CC(C)C)C(=O)N[C@@H](CCCCC)C(=O)N2CCC[C@H]2C(=O)N[C@@H](C(C)C)C(=O)N[C@@H](CC(=O)O)C(=O)N[C@H](C(=O)NCC(N)=O)CSCC(=O)N[C@@H](Cc2ccccc2)C(=O)N[C@@H](Cc2ccc3ccccc3c2)C(=O)N[C@@H](CC(=O)O)C1=O [compound 1324] ({CH2CO}-F[2Nal]D[NHexGly]YVGRL[Ahp(2)]PVDCG-NH2; thioether N-14)
IC50: 48.2 nM

CCCCCCN1CC(=O)N[C@@H](Cc2ccc(O)cc2)C(=O)N[C@@H](CCCCC)C(=O)NCC(=O)N[C@@H](CCCNC(=N)N)C(=O)N[C@@H](CC(C)C)C(=O)N[C@@H](CCCCC)C(=O)N2CCC[C@H]2C(=O)N[C@@H](C(C)C)C(=O)N[C@@H](CO)C(=O)N[C@H](C(=O)NCC(N)=O)CSCC(=O)N[C@@H](Cc2ccccc2)C(=O)N[C@@H](Cc2ccccc2)C(=O)N[C@@H](CC(=O)O)C1=O [compound 1325] ({CH2CO}-FFD[NHexGly]Y[Ahp(2)]GRL[Ahp(2)]PVSCG-NH2; thioether N-14)
IC50: 24.3 nM

CCCCCCN1CC(=O)N[C@@H](Cc2ccc(O)cc2)C(=O)N[C@@H](CCCC)C(=O)N[C@@H](CC(=O)O)C(=O)N[C@@H](CCCN)C(=O)N[C@@H](CC(C)C)C(=O)N[C@@H](CCCCC)C(=O)N2CCC[C@H]2C(=O)N[C@@H](C(C)C)C(=O)N[C@@H](CC(=O)O)C(=O)N[C@H](C(=O)NC(CC(=O)O)C(N)=O)CSCC(=O)N[C@@H](Cc2ccccc2)C(=O)N[C@@H](Cc2cccc(C)c2)C(=O)N[C@@H](CC(=O)O)C1=O (stereo partly drawn) [compound 1326] ({CH2CO}-F[Phe(3-Me)]D[NHexGly]Y[Nle]D[Orn]L[Ahp(2)]PVDC[ξD]-NH2; thioether N-14)
IC50: 17.5 nM

CCCCCCN1CC(=O)N[C@@H](Cc2ccc(O)cc2)C(=O)N[C@@H](CCCC)C(=O)N[C@@H](CC(=O)O)C(=O)N[C@@H](CCCNC(=N)N)C(=O)N[C@@H](CC(C)C)C(=O)N[C@@H](CCCCC)C(=O)N2CCC[C@H]2C(=O)N[C@@H](C(C)C)C(=O)N[C@@H](CC(=O)O)C(=O)N[C@H](C(=O)NC(CC(=O)O)C(N)=O)CSCC(=O)N[C@@H](Cc2ccccc2)C(=O)N[C@@H](Cc2cccc(C)c2)C(=O)N[C@@H](CC(=O)O)C1=O (stereo partly drawn) [compound 1327] ({CH2CO}-F[Phe(3-Me)]D[NHexGly]Y[Nle]DRL[Ahp(2)]PVDC[ξD]-NH2; thioether N-14)
IC50: 13.9 nM
